Source: patent publication EP4582080A1, “DISPENSER FOR MUCOSAL ADMINISTRATION COMPRISING 2-DEOXY-GLUCOSE OR ANALOGUES THEREOF” (G.ST Antivirals GmbH, priority 2024, dated 2025)

Key:
[1] = Imine (Schiff's base) formation of 2-DG with L-lysine in buffer; format: physicochemical
Procedure: The present invention is further illustrated by the following figures and examples, without being restricted thereto. • Fig. 1: Imine formation of 2-deoxy-D-glucose (2-DG) with L-lysine in citric acid•Na2HPO4 buffer (pH 7) at different 2-DG concentrations incubated at 37 °C. Indicated values are means (n=4) ± SEM. • Fig. 2: Imine formation of 2-deoxy-D-glucose (2-DG, 35mg/mL) with L-lysine (O.lmg/mL) in citric acid•Na2HPO4 buffer at different pH values incubated at 37 °C. Indicated values are means (n=4) ± SEM. • Fig. 3: Imine formation of 2-deoxy-D-glucose (2-DG, 35mg/mL) with L-lysine (O.lmg/mL) in citrate buffer at different pH values incubated at 37 °C. Indicated values are means (n=4) ± SEM. • Fig. 4: Imine formation of 2-deoxy-D-glucose (2-DG, 35mg/mL) with L-lysine (O.lmg/mL) in tartrate buffer at different pH values incubated at 37 °C. Indicated values are means (n=4) ± SEM. • Fig. 5: Imine formation of 2-deoxy-D-glucose (2-DG, 35mg/mL) with L-lysine (O.lmg/mL) in maleate buffer at different pH values incubated at 37 °C. Indicated values are means (n=4) ± SEM. • Fig. 6: Mucus penetration of 2-deoxy-D-glucose (2-DG), 2-fluoro-2-deoxy-D-glucose (2-FDG) or 2-fluoro-2-deoxy-D-mannose (2-FDM) (all 35mg/mL) in citrate buffer at pH5 and pH7, incubated for 30min at 37 °C. […]

[2] = Mucus penetration through mucus on a semipermeable membrane, measured via mass spectrometry; format: in vitro ADME; conditions: 35mg/mL in citrate buffer, pH5 versus pH7, 30min at 37 °C (Fig. 6)
Procedure: The present invention is further illustrated by the following figures and examples, without being restricted thereto. • Fig. 1: Imine formation of 2-deoxy-D-glucose (2-DG) with L-lysine in citric acid•Na2HPO4 buffer (pH 7) at different 2-DG concentrations incubated at 37 °C. Indicated values are means (n=4) ± SEM. • Fig. 2: Imine formation of 2-deoxy-D-glucose (2-DG, 35mg/mL) with L-lysine (O.lmg/mL) in citric acid•Na2HPO4 buffer at different pH values incubated at 37 °C. Indicated values are means (n=4) ± SEM. • Fig. 3: Imine formation of 2-deoxy-D-glucose (2-DG, 35mg/mL) with L-lysine (O.lmg/mL) in citrate buffer at different pH values incubated at 37 °C. Indicated values are means (n=4) ± SEM. • Fig. 4: Imine formation of 2-deoxy-D-glucose (2-DG, 35mg/mL) with L-lysine (O.lmg/mL) in tartrate buffer at different pH values incubated at 37 °C. Indicated values are means (n=4) ± SEM. • Fig. 5: Imine formation of 2-deoxy-D-glucose (2-DG, 35mg/mL) with L-lysine (O.lmg/mL) in maleate buffer at different pH values incubated at 37 °C. Indicated values are means (n=4) ± SEM. • Fig. 6: Mucus penetration of 2-deoxy-D-glucose (2-DG), 2-fluoro-2-deoxy-D-glucose (2-FDG) or 2-fluoro-2-deoxy-D-mannose (2-FDM) (all 35mg/mL) in citrate buffer at pH5 and pH7, incubated for 30min at 37 °C.
We measured the mucus penetration potential in the following manner: After applying mucus onto a semipermeable membrane, formulations containing 2-DG or analogues at indicated pH were applied onto the mucus. Penetrated 2-DG or analogues was measured via mass spectrometry.

Row | Structure (SMILES) | Imine formation ([1]; 2-DG 35mg/mL, L-lysine (O.lmg/mL), acidic pH (pH < 7.0) in citric acid•Na2HPO4, citrate, tartrate, maleate buffers, 37 °C (Fig. 2-5)) | Imine formation ([1]; with L-lysine in citric acid•Na2HPO4 buffer (pH 7), different 2-DG concentrations, 37 °C (Fig. 1)) | Mucus penetration [2]
1 | O=CC[C@@H](O)[C@H](O)[C@H](O)CO [2-DG, 2-deoxy-D-glucose] | distinct lowering in the formation of Schiff's bases | lead to the formation of Schiff's bases (imines) | increased mucus penetration properties
2 | O=C[C@@H](F)[C@@H](O)[C@H](O)[C@H](O)CO [2-FDM, 2-fluoro-2-deoxy-D-mannose] | – | – | increased mucus penetration properties
3 | O=C[C@H](F)[C@@H](O)[C@H](O)[C@H](O)CO [2-FDG, 2-fluoro-2-deoxy-D-glucose] | – | – | increased mucus penetration properties
